Usually IC50 stands for the midpoint of a concentration-inhibition curve.

The assay has as its system Her2 protein levels in BT474 breast cancer cells. As to the kind of experiment: Her2 degradation assay (marker for Hsp90 inhibition). It is filed as cell-based. The note with it: Homo sapiens, BT-474, 8 hours with compound, Her2 immunocytochemistry, ArrayScan vTi. As for the experimental part: Its inhibition impairs the capacity to fold or stabilize its client proteins, leading to the proteosomal dependent degradation of these unfolded proteins.
Cellular Her2 levels were measured by immunocytochemistry, and quantified using an ArrayScan vTi instrument (Cellomics Thermo Scientific).
Studies were performed as follows: 5000 cells/well are seeded in 96 well plates (Perkin Elmer) in DMEM/5% FCS and incubated for 48 hours at 37° C., 5% CO2.
Medium is then replaced with fresh medium containing test compounds at the required concentration. Concentration curves are prepared in DMEM/10% FCS from compound stocks in DMSO, and final DMSO concentration is 0.1% (v/v). Duplicate wells for each concentration point are prepared, with a typical highest compound concentration of 30 μM. […] Non-specific binding sites are blocked by incubating wells for 1 hour in PBS containing 3% (w/v) BSA. […] At least 10 fields, corresponding to at least 900 cells, are read for each well.

For the molecule `Nc1nc2c3c(F)cccc3nc(Cc3ccc4c(c3)OCO4)n2n1` [5-(1,3-benzodioxol-5-ylmethyl)-10-fluoro[1,2,4]triazolo[1,5-c]quinazolin-2-amine], the IC50 is 6.78 µM.

For the origin of these results see patent publication US8580783B2, “[1,2,4]triazolo [1,5-c]pyrimidine derivatives as Hsp90 modulators” (Nerviano Medical Sciences S.r.l., priority 2010, dated 2013).
